The values below come from EP0812190B1 (priority 1993, dated 1995).

For data set [1], the system named is haloperidol-induced catalepsy.
Data set [2] concerns the target T1, MAO-B (Rattus norvegicus, UniProt P19643).
T1 sequence (P19643 1-520): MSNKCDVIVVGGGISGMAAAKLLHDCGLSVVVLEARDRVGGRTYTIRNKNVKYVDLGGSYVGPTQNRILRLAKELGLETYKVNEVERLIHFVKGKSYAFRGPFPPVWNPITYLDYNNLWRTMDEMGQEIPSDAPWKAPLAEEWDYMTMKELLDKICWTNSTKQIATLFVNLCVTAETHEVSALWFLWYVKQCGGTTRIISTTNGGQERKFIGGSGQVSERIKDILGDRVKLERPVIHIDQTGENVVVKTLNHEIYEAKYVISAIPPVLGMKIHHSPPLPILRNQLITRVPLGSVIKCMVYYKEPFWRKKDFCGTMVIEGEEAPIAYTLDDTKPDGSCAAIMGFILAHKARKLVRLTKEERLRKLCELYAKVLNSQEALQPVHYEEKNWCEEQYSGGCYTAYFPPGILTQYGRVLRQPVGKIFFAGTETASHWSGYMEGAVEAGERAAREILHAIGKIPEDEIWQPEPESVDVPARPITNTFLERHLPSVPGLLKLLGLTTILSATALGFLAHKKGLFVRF
As to the kind of experiment: in vivo. As to conditions: rat. The procedure:
Groups of three rats were used for each dose level of inhibitor, and MAO activity determined in brain and liver using the general technique described above. The amount of protein in each incubation was determined using the Folin-Lowry method, and enzyme activity calculated as nmol of substrate metabolized per hour of incubation for each mg of protein. Activity of MAO in tissues from animals treated with inhibitors was expressed as a percentage of the enzyme activity in a group of control animals administered vehicle (water for oral administration, 0.9% saline for ip injection) and killed as above.

The subject of data set [3] is heart rate, blood pressure, cardiovascular effects of tyramine. As to conditions: cited from earlier work.
Data set [4] addresses T2, MAO-A (Rattus norvegicus, UniProt P21396).
T2 sequence (P21396 1-526): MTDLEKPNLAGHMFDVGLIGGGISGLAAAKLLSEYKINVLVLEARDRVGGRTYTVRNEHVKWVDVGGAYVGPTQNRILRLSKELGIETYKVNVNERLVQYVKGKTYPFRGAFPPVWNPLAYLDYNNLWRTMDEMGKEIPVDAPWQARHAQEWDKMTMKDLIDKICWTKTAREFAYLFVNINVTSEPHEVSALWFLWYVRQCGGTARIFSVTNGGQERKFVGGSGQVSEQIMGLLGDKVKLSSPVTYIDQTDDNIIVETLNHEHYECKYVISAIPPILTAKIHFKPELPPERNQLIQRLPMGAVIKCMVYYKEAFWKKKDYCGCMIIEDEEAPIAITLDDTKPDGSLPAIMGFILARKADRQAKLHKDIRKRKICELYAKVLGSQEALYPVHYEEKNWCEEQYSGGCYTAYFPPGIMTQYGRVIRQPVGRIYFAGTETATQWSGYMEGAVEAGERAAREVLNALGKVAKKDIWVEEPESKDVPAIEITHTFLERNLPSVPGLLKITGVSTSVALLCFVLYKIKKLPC
Description: Inhibition of MAO activity in vivo, acute treatment, MAO-A. On the set-up: MAO activity determined in brain and liver using the general technique described above; from tissue; host or cells: brain and liver of treated rats. The note with it: dose producing 50% inhibition, rat.

In data set [5] the target is T1, MAO-B. As to the kind of experiment: Rat brain MAO inhibition by propargylamines (Table IA), MAO-B. Type of data set: biochemical. On the set-up: in a rat brain preparation of MAO; from tissue; host or cells: rat brain preparation. As to conditions: ratio MAO-A / MAO-B for one epimer.
The test system of data set [6] is MPTP-induced striatal dopamine depletions. Description: Suppression of MPTP-induced dopaminergic toxicity (striatal DA and DOPAC). The format is in vivo, mice. The note with it: striatum; MPTP-HCl 30 mg/kg s.c. alone. As for the experimental part:
Brains were removed and corpora striata dissected on an ice-cold glass plate and frozen on dry ice. Striatal tissues were homogenized in 0.1 M perchloric acid, and deproteinized aliquots containing dihydroxybenzylamine as an internal standard were assayed for dopamine and its major metabolite 3,4-dihydroxy-phenylacetic acid (DOPAC) using HPLC with electrochemical detection.

The subject of data set [7] is rabbit jejunum. As to the kind of experiment: Tyramine potentiation in rabbit jejunum preparation.
Data set [8] has as its system NMDA-induced cell death of cerebellum cells. Description: cells. The note with it: Rattus norvegicus, 24 h. As for the experimental part:
Procedures: Cultures of mechanically dissociated neonatal rat cerebellum. […] The cerebella are then dissociated after 20-25 passages through a sterile 13 gauge, 10 cm long stainless steel needle attached to a 5 ml syringe with an inserted 45 µm pore size nylon sieve. The dissociated cells are centrifuged at 200g for 5 minutes, the supernatant discarded and the cells resuspended in enriched medium. The cell viability is determined by the trypan blue exclusion test. […] After 4 days in culture, the media are replaced with media containing the desired test compounds. Experiments are done in duplicate and repeated 2 or 3 times. […] Nerve cell survival is evaluated by phase contrast microscopy and trypan blue staining after 24 h.

Data set [9] concerns α-MpT-induced hypokinesia. Description: Reversal of α-MpT-induced hypokinesia in rats. As to conditions: α-MpT 100 mg/kg i.p. alone. The format is in vivo. The procedure: The drug α-MpT is assumed to inhibit the formation of L-DOPA from tyrosine, and consequently the formation of dopamine itself. Lack of CNS dopamine is expressed as hypoactivity. Six month-old male Wistar rats (from Harlan Orkack, UK) were pretreated with saline, [R] […] Two hours later they received i.p. α-MpT at a dose of 100 mg/kg in 0.3-0.5 mL. Controls received saline. Following this, motor activity was recorded in a computerized activity cage for the duration of 10 hours. […] (+)PAI Mesylate at 2 mg/kg.

A short description of data set [10]: Comparative stability: visual inspection of color and form. Type of data set: physicochemical. The procedure: Comparative stability studies were carried out under sets of several accelerating conditions: I) heating at 80°C for 72, 96 or 144 hours; and II) reflux in isopropanol for 30 hours. The degradation products developed were measured by HPLC and confirmed by TLC. The results are presented in Table 9 with the relative retention time (relative to the PAI peak; RRT) as an area percentage relative to total integrated peak area.
The salts were submitted to visual inspection of color and form.

Data set [11] can be described thus: pH of 1% aqueous solution of PAI salts. The format is physicochemical.
Description: (§1) The melting range was measured with an automatic apparatus (Mettler FP 80) and thermo-gravimetric analysis was performed on a Mettler TA 3000 system at a rate of 10°C/min in the applicable range. […] The pH was measured in a 1% aqueous solution of the PAI salts.
Data set [12] in a line: Thermo-gravimetric analysis of PAI salts. The format is physicochemical. The note with it: 10°C/min.
Description: as §1
[13] abbreviates: comparative animal tests versus (-)-deprenyl.

In general, Solubility refers to the concentration that dissolves in the medium under given conditions.

Structures can show the parent of a compound that is named as a salt. Where two headings read alike, the source gives them in different places. Where only a bound is given, the exact number is not on record here.

`C#CCNC1CCc2ccccc21` (racemic) [Rac PAI Mesylate, reference compound]: in [1] (5.0 mg/kg i.p., listed as Racemic PAI mesylate), the “Score+SE” value is “not active”.

As for `C#CCNC1CCc2ccccc21` (racemic) [Rac, N-propargyl-1-aminoindan, reference compound], in data set [2] (dose producing 50% inhibition, p.o., 2h), the “IC-50 MAO-B P.O. BRAIN” value worked out at 0.29 mg/kg. The ED50 in data set [2] (ip, 1 h, read-out: IC-50 MAO-B I.P. BRAIN) was determined as 0.22 mg/kg. Besides, in data set [2] (ip, 1 h, read-out: IC-50 MAO-B I.P. LIVER), the ED50 came to 0.11 mg/kg. In addition, in data set [2] (po, 2 h, read-out: IC-50 MAO-B P.O. LIVER), the ED50 amounted to 0.09 mg/kg. Also, in data set [3] (setting [13]), the blood pressure entry is recorded as “does not increase blood pressure” and the tachycardia entry is listed as “no significant tachycardia”. Besides, in data set [4] (i.p., 1h), the “IC-50 MAO-A I.P. BRAIN” value amounted to 2.5 mg/kg and the “IC-50 MAO-A I.P. LIVER” value stood at 5 mg/kg. In [4] (p.o., 2h), the “IC-50 MAO-A P.O. BRAIN” value is listed as >5 mg/kg and the “IC-50 MAO-A P.O. LIVER” value is recorded as >5 mg/kg.

`C#CCNC1CCc2ccccc21` (racemic) [racemic PAI·HCl, Racemic N-propargyl-1-aminoindan hydrochloride]: the “potentiation of the cardiovascular effects of tyramine” value in data set [3] (in vivo) is listed as “does not potentiate the cardiovascular effects of tyramine”.

Regarding `C#CCN(C)C1CCCc2ccccc21` (single isomer, unassigned) [2-MPAI +, N-Methyl-N-propargyl-1-aminotetralin], in [5], the “RELATIVE POTENCY A/B” value came to 8.8.

Consider `C#CCN(C)C1CCCc2ccccc21` (single isomer, unassigned) [2-MPAI -, N-Methyl-N-propargyl-1-aminotetralin], for which the “RELATIVE POTENCY A/B” value in [5] was found to be 0.5.

Take `C#CCNC1CCCc2ccccc21` (stereo not drawn) [1-PAT R, N-propargyl-1-aminotetralin]: in [5], the “RELATIVE POTENCY A/B” value is given as 10.

On to `C#CCNC1CCCc2ccccc21` (stereo not drawn) [1-PAT S, N-propargyl-1-aminotetralin], for which the “RELATIVE POTENCY A/B” value in data set [5] is given as 76.

In the case of `O=C(CCCN1CCC(O)(c2ccc(Cl)cc2)CC1)c1ccc(F)cc1` [Haloperidol, reference compound], the “Score+SE” value in data set [1] (haloperidol 6mg/kg s.c. alone, 3 hours after) amounted to 6.6±0.3; in data set [1] (haloperidol 6mg/kg s.c. alone, 3 hours after, listed as haloperidol) it was 6.6±0.03.

In data set [6], `CN1CC=C(c2ccccc2)CC1` [MPTP, 1-Methyl-phenyl-1,2,3,6-tetrahydropyridine] came in with a DA of 53.1±6.2 ng/mg protein and a DOPAC of 3.2±0.3 ng/mg protein.

In the case of `NC[C@H](O)c1ccc(O)c(O)c1` [Norepiniphrine], the Percent relaxation in [7] (0.002 µM) is 100%.

As for `NCCCNCCCCNCCCN` [Spermine, reference compound], in data set [8] (read-out: Percent Protection), the inhibition at 0.01 µM stood at 65%. In addition, the viability at 0.01 µM in data set [8] (read-out: Surviving Cells) worked out at 75%.

Consider `NCCc1ccc(O)cc1` [Tyramine], for which the Percent relaxation in [7] (tyramine alone 40 µM) worked out at 0%.

`CC(N)(Cc1ccc(O)cc1)C(=O)O` (stereo not drawn) [α-Mpt, α-methyl-p-tyrosine, reference compound]: in data set [9], the “% of control” value is listed as 51% and the “Score (total motor activity, 10 hours)” value is recorded as 8,108±810.

On to chloride, for which the appearance result in data set [10] (80°C/72h) is “white powder”; in data set [10] (80°C/144h), “white powder”; in data set [10] (reflux in iPrOH/30h), “off white powder”.

As for fumarate, the pH in data set [11] came out at 3.5. Also, the “%Wt. loss” value in [12] was determined as 0.2%. Moreover, the Solubility (water) amounted to 95 mg/mL.

For the compound maleate, the “%Wt. loss” value in data set [12] is on record as 0.1%. Moreover, the appearance entry in [10] (80°C/72h) is reported as “brown melted”; in data set [10] (80°C/96h), “brown”; in [10] (reflux in iPrOH/30h), “brown melted”. The Solubility result (water) is “NLT 1000 mg/ml”.

As for phosphate, the appearance entry in data set [10] (80°C/72h) is “brownish powder”; in data set [10] (80°C/144h) it was “brown powder”; in data set [10] (reflux in iPrOH/30h) it was “brown powder”.

On to sulphate, for which the appearance entry in data set [10] (80°C/72h) is “off white powder”; in data set [10] (80°C/144h), “off white powder”; in [10] (reflux in iPrOH/30h), “brown powder”.

In the case of tartarate, the pH in data set [11] is on record as 5.5. Besides, the “%Wt. loss” value in data set [12] was “LT 0.1%”.

For tosylate, the pH in [11] is listed as 4.4. Besides, the “%Wt. loss” value in data set [12] was “LT 0.1%”. The Solubility (saturated salt water solution) was in the range of 60 to 70 mg/mL.
